{
  "source": "patent US20130267594A1",
  "about": "“PROLYL HYDROXYLASE INHIBITORS AS RADIATION MITIGATORS AND RADIATION PROTECTORS” (priority 2010, published 2013)",
  "key": {"MTA3 [1]": {"test_system": "MTA3", "format": "cell-based", "settings": "MCF7 cells; CoCl2 200 μM time course, FIG. 8F; DMOG only stated"}, "H3K9me3 [2]": {"test_system": "H3K9me3", "assay": "H3K9me3 immunofluorescent staining in MEFs (FIG. 10A)", "format": "cell-based, mouse", "settings": "DMOG 1 mM 24 hr", "procedure": "In FIG. 10A MEFs were incubated in either solvent (Control: DMSO) or DMOG (1 mM) for 24 hr. H3K9me3 levels were detected by immunofluorescent staining with antibody to H3K9me3 and co-stained with DAPI to locate nuclear DNA. In FIG. 10B HEK293T cells were transiently transfected with vector or KDM4A and allowed to recover for 30 hrs. Cells were either untreated or incubated with DMOG (1 mM) for 24 hrs. H3K9me3 levels were detected by immunofluorescent staining with antibody to H3K9me3. In FIG. 10C MCF-7 cells were incubated in increasing concentrations of DMOG or CoCl2 (200 μM) for 24 hrs. […] In FIG. 10D MCF-7 cells were incubated in DMOG (1 mM) or CoCl2 (200 μM) for the indicated time. […] In FIG. 10E MCF-7 cells expressing either a non-specific shRNA (shRNA^Con) or shRNA targeting Hif1α (shRNA^Hif1α) were incubated with DMOG or CoCl2 (200 μM) for 24 hrs.\nImmunofluorescence: Cells (on cover slides) were fixed in phosphate-buffered saline (PBS) containing 2% paraformaldehyde. Cells were permeabilized in 0.2% Triton X-100 in PBS for 5mins, and then blocked in fetal bovine serum for 20 min, Primary antibodies were prepared in 10% fetal bovine serum supplemented with 0.2% saponin. After a 1 h incubation with primary antibody, cells were washed three times with 0.2% Tween-20 and incubated for 1 h in secondary antibody (conjugated to either Texas Red or FITC; Santa Cruz Biotechnology, CA). […]"}, "Hif1α": {"test_system": "Hif1α", "format": "cell-based, mouse"}, "MTA3 [3]": {"test_system": "MTA3", "format": "cell-based", "settings": "MCF-7 cells; CoCl2 200 μM 8 hr, FIG. 8E; DMOG only stated"}, "KDM4A": {"target": "T1, KDM4A (Homo sapiens, UniProt O75164)", "T1 construct": "expressed in transfected cells; host or cells: HEK293T cells", "T1 sequence (O75164 1-1064)": "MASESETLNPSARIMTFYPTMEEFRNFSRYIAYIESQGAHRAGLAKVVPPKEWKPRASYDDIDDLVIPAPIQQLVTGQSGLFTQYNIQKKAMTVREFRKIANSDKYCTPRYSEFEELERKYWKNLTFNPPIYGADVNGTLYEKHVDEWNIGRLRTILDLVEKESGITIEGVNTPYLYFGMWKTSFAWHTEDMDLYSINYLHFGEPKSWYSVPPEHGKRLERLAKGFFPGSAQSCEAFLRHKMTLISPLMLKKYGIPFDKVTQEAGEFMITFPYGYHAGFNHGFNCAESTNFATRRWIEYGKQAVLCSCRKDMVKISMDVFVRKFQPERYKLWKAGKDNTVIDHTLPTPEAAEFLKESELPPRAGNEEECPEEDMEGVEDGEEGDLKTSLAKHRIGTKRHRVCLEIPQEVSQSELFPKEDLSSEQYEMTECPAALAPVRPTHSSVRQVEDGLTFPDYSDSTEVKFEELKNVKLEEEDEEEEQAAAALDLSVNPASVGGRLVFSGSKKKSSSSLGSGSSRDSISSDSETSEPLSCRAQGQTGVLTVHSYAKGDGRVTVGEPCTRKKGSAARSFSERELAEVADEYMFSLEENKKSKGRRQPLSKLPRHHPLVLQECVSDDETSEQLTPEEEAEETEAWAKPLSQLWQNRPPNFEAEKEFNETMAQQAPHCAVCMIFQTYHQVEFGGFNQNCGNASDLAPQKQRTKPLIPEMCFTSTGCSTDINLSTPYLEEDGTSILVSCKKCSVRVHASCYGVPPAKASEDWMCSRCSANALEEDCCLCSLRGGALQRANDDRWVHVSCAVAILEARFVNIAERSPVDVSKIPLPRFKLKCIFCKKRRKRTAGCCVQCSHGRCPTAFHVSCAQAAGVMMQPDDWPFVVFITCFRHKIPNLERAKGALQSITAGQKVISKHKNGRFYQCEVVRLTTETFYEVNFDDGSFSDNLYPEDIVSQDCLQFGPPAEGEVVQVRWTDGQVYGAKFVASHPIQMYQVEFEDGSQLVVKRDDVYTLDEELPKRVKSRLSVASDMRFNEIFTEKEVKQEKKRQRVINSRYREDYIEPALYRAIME", "assay": "H3K9me3 immunofluorescent staining in HEK293T cells transiently expressing KDM4A (FIG. 10B)", "format": "cell-based", "settings": "DMOG 1 mM 24 hrs"}, "H3K9me3 [4]": {"test_system": "H3K9me3", "assay": "Western blot of H3K9me3 in Suv39h1/2−/− MEFs (FIG. 4A)", "format": "cell-based, mouse", "settings": "Suv39h1/2−/− cells, DMOG 100 μM/2hours", "procedure": "Cell lysates and Western blot analysis: Antibodies used: mHif1α (Santa Cruz Biotechnology, CA); hHIF1α (Abcam, CA); H3K9me3 (Millipore, N.Y.); β-actin (Cell Signaling Technology, Mass.); CHD4 and MTA3 (Bethyl Laboratories, Tex.); Suv39h1 (Novus, CA). To prepare nuclear lysates, cells were resuspended in 500 μl buffer A (10 mM Tris, pH8.0/1 mM EDTA, pH8.0/150 mM NaCl/0.5% NP-40/1 mM PMSF/5 μg/ml leupeptin/20 μg/ml aprotinin), incubated on ice for 15 min and centrifuged at 500 g for 5 min at 4° C. Supernatant was removed and the pellet resuspended in buffer B (20 mM Hepes, pH7.9/400 mM NaCl/1 mM EDTA/0.5 mM DTT/1 mM PMSF/5 μg/ml leupeptin/20 μg/ml aprotinin), incubated on ice for 15 min and cleared by centrifugation (21,000 g for 5 min at 4° C.). For western blots, equal amounts of protein (Bradford Protein Assay kit, Bio-Rad Laboratories, CA) were separated by electrophoresis and transferred to nitrocellulose membranes (Bio-Rad Laboratories, CA). Membranes were blocked with Odyssey Blocking Buffer (Li-Cor, NB), incubated with primary antibodies for 3 h, and washed in PBST (PBS and 0.1% Tween-20) followed by goat anti-mouse IR Dye-800CW or goat anti-rabbit IR Dye-680CW secondary antibodies (Li-Cor, NB). Imaging was performed using the Li-Cor Odyssey Near Infra Red System, and analyzed using the Odyssey software system 3.0 package (Li-Cor, NB)."}, "HeLa cells": {"test_system": "HeLa cells", "assay": "Control experiment: toxicity of DMOG to the cells over the time course", "format": "cell-based", "settings": "control experiments to FIG. 2"}},
  "data": [
    {"molecule": "COC(=O)CNC(=O)C(=O)OC", "note": "[DMOG, dimethyloxalylglycine]", "values": [
      {"measurement": "MTA3 protein levels", "setting": "MTA3 [1]", "value": "increased"},
      {"measurement": "H3K9me3 in cells", "setting": "H3K9me3 [2]", "value": "rapidly increased H3K9me3"},
      {"measurement": "ability to increase Hif1α levels in SuvDKO MEFs", "setting": "Hif1α", "value": "not altered"},
      {"measurement": "MTA3 mRNA levels", "setting": "MTA3 [3]", "value": "increased"},
      {"measurement": "H3K9me3 levels in cells expressing KDM4A", "setting": "KDM4A", "value": "restored H3K9me3 levels to near normal"},
      {"measurement": "levels of H3K9me3 (Western blot)", "setting": "H3K9me3 [4]", "value": "increased the levels of H3K9me3 in Suv39h1/2−/− cells to a level similar to those seen in Suv39h1/1+/+ cells"},
      {"measurement": "toxicity over the time course of the experiment", "setting": "HeLa cells", "value": "did not exhibit significant toxicity"}
    ]}
  ]
}
